Laboratory results as given in ChEMBL document CHEMBL1833843, “Diarylpropanes and an arylpropyl quinone from Combretum griffithii” (J Nat Prod, 2011).
In brackets after ≈: the same amount, converted by molar mass. Activity calls are given as the source filed them. The calls are words filed in the database; no cut-off is given here.

Assays:
KB = experiment: Cytotoxicity against human KB cells by sulforhodamine B assay; type: functional, cell-based
Plasmodium falciparum [1] = experiment: Antimalarial activity against multidrug-resistant Plasmodium falciparum K1 assessed as [3H]-hypoxanthine uptake at 10 ug/mL after 24 hrs by scintillation counting; type: functional, organism-based
[2] = tested on: Mycobacterium tuberculosis; experiment: Antimycobacterial activity against Mycobacterium tuberculosis H37Ra by microplate alamar blue assay; type: functional
Plasmodium falciparum [3] = experiment: Antimalarial activity against multidrug-resistant Plasmodium falciparum K1 assessed as [3H]-hypoxanthine uptake after 24 hrs by scintillation counting
NCI-H187 = experiment: Cytotoxicity against human NCI-H187 cells by sulforhodamine B assay; type: functional, cell-based
MCF7 = experiment: Cytotoxicity against human MCF7 cells by sulforhodamine B assay; type: functional, cell-based

SMILES | IC50 (KB) | Activity (Plasmodium falciparum [1]) | also measured
COc1ccc(CCCc2ccc(O)c(OC)c2)c(O)c1 | 2.18 µg/mL (≈ 7.56 µM) | inactive | MIC [2]: 3.13 µg/mL (≈ 10.9 µM)
COc1cc(O)c(O)cc1CCCc1ccc(OC)c(OC)c1 |  | inactive | 
C[C@H]1[C@@H](O)O[C@@H]2O[C@@]3(C)CC[C@H]4[C@H](C)CC[C@@H]1[C@@]24OO3 [ARTENIMOL] |  |  | IC50 (Plasmodium falciparum [3]): 0.001 µg/mL (≈ 0.00352 µM)
COc1cc(CCCc2cc(OC)c(O)cc2OC)ccc1O [GRIFFITHANE A] | 2.13 µg/mL (≈ 6.69 µM) | inactive | 
COc1cc(CCCc2ccc(OC)c(O)c2OC)ccc1O [GRIFFITHANE B] | 5.67 µg/mL (≈ 17.8 µM) | inactive | 
COC1=CC(=O)C(CCCc2ccc(O)c(OC)c2)=CC1=O [GRIFFITHANE D] | 1.42 µg/mL (≈ 4.7 µM) | inactive | IC50 (NCI-H187): 1.08 µg/mL (≈ 3.57 µM); IC50 (MCF7): 6.75 µg/mL (≈ 22.3 µM)
NNC(=O)c1ccncc1 [ISONIAZID] |  |  | MIC [2]: 0.23 µg/mL (≈ 1.68 µM)
